Data from ChEMBL document CHEMBL5543131, “Discovery of Highly Potent Solute Carrier 13 Member 5 (SLC13A5) Inhibitors for the Treatment of Hyperlipidemia” (J Med Chem, 2024).
Active and inactive are the calls of the source. No cut-off for these calls is given here.

Assays:
[1] = molecular target: Na(+)/citrate cotransporter (Homo sapiens) (UniProt Q86YT5); assay: Competitive inhibition of SLC13A5 (unknown origin) assessed as increase in Km with constant Vmax upto 50 uM
[2] = molecular target: T1, Solute carrier family 13 member 2 (Homo sapiens) (UniProt Q13183); assay: Inhibition of NaDC1 (unknown origin) citrate transport activity
T1 sequence (whole entry): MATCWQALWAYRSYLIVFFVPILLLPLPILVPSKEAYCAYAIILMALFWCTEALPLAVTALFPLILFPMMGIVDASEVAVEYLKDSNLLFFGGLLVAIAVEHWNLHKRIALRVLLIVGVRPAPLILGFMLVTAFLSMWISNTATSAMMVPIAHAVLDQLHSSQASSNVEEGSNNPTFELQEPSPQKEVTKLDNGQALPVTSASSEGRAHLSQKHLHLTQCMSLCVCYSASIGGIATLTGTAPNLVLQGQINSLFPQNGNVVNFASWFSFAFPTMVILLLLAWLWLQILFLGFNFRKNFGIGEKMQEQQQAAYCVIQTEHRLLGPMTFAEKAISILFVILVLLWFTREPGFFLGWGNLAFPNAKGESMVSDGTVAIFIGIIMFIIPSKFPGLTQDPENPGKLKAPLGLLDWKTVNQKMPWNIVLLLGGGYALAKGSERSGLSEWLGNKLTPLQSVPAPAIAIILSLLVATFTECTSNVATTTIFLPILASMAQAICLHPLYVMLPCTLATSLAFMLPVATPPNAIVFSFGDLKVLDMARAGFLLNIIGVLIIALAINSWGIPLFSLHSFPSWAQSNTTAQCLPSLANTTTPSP

[3] = molecular target: T2, Na(+)/dicarboxylate cotransporter 3 (Homo sapiens) (UniProt Q8WWT9); assay: Inhibition of NaDC3 (unknown origin) citrate transport activity
T2 sequence (whole entry): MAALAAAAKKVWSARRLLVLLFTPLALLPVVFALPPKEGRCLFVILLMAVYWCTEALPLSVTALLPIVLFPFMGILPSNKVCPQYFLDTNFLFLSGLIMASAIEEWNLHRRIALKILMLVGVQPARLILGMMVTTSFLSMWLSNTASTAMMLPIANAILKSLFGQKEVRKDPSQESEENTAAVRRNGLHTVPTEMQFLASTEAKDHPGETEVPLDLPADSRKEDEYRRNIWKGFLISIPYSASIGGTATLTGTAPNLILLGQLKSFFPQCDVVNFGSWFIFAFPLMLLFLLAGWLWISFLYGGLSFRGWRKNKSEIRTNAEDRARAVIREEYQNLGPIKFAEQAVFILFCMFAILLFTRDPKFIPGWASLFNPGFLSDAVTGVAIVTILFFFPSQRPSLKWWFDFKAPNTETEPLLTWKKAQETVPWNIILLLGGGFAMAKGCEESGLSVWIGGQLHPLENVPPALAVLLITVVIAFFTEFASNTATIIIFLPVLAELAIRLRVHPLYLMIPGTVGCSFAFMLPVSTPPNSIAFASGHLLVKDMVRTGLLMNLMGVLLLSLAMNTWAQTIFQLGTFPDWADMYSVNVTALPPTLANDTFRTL

[4] = test system: AML12; assay: Downregulation of ACLY mRNA expression in oleic and palmitic acid induced mouse AML12 cells by RT-qPCR analysis; format: functional, cell-based; conditions: dose 3-30 µM
[5] = test system: AML12; assay: Effect on SCL13A5 mRNA expression in oleic acid and palmitic acid induced mouse AML12 cells at 3 to 30 uM by RT-qPCR analysis; format: functional, cell-based; conditions: dose 3-30 µM
[6] = test system: AML12; assay: Lipid lowering effect on PCN-induced lipid accumulation in mouse AML12 cells assessed as decrease in ACC1 mRNA expression level at 3 to 30 uM preincubated with compound for 30 mins followed by PCN addition and measured after 24 hrs by RT-qPCR analysis; format: functional, cell-based; conditions: dose 3-30 µM, time 24.5 hrs
[7] = test system: AML12; assay: Effect on SCL13A5 mRNA expression in PCN-induced mouse AML12 cells at 3 to 30 uM preincubated with compound for 30 mins followed by PCN addition and measured after 24 hrs by RT-qPCR analysis; format: functional, cell-based; conditions: dose 3-30 µM, time 24.5 hrs
[8] = test system: Hepatocyte; assay: Lipid lowering effect on PCN-induced lipid accumulation in mouse Primary hepatocyte assessed as decrease in intracellular triglyceride level; format: functional, cell-based; conditions: dose 3-30 µM
[9] = test system: Hepatocyte; assay: Lipid lowering effect on PCN-induced lipid accumulation in mouse Primary hepatocyte assessed as decrease in intracellular total cholesterol level; format: functional, cell-based; conditions: dose 3-30 µM
[10] = test system: Hepatocyte; assay: Lipid lowering effect on PCN-induced lipid accumulation in mouse Primary hepatocyte assessed as decrease in HMGCR mRNA expression level at 3 to 30 uM by RT-qPCR analysis; format: functional, cell-based; conditions: dose 3-30 µM
[11] = test system: HepG2; assay: Lipid lowering effect on PCN-induced lipid accumulation in human HepG2 cells assessed as decrease in intracellular total cholesterol level; format: functional, cell-based; conditions: dose 3-30 µM
[12] = test system: HepG2; assay: Lipid lowering effect on PCN-induced lipid accumulation in human HepG2 cells assessed as decrease in FASN mRNA expression level at 3 to 30 uM by RT-qPCR analysis; format: functional, cell-based; conditions: dose 3-30 µM
[13] = test system: Mus musculus; assay: Lipid lowering activity in starvation-induced hyperlipidemic male C57BL/6J mouse model assessed as decrease in triglyceride level in liver at 10 to 30 mg/kg, ip starved for 48 hrs followed by compound administration and measured after 2 hrs; format: functional, organism-based; conditions: dose 10-30 mg/kg
[14] = test system: Mus musculus; assay: Lipid lowering activity in starvation-induced hyperlipidemic male C57BL/6J mouse model assessed as decrease in NEFA level in liver at 10 to 30 mg/kg, ip starved for 48 hrs followed by compound administration and measured after 2 hrs; format: functional, organism-based; conditions: dose 10-30 mg/kg
[15] = test system: Mus musculus; assay: Lipid lowering activity in starvation-induced hyperlipidemic male C57BL/6J mouse model assessed as decrease in NEFA level in plasma at 10 to 30 mg/kg, ip starved for 48 hrs followed by compound administration and measured after 2 hrs; format: functional, organism-based; conditions: dose 10-30 mg/kg
[16] = test system: Mus musculus; assay: In vivo inhibition of SLC13A5 in starvation-induced hyperlipidemic male C57BL/6J mouse model assessed as decrease in liver citrate level at 30 mg/kg, ip starved for 48 hrs followed by compound administration and measured after 2 hrs; format: functional, organism-based
[17] = test system: Mus musculus; assay: Lipid lowering activity in starvation-induced hyperlipidemic male C57BL/6J mouse model assessed as downregulation of ACLY gene expression level starved for 48 hrs followed by oral administration of compound and measured after 2 hrs by RT-qPCR analysis; format: functional, organism-based; conditions: dose 10-30 mg/kg
[18] = test system: Mus musculus; assay: Lipid lowering activity in PCN-induced hyperlipidemic male C57BL/6J mouse model assessed as decrease in plasma triglyceride level at 10 to 30 mg/kg, IG preadministered with compound for 15 to 30 mins followed by PCN administration and measured after 7 days; format: functional, organism-based; conditions: dose 10-30 mg/kg, time 15-10110 min
[19] = test system: Mus musculus; assay: Lipid lowering activity in PCN-induced hyperlipidemic male C57BL/6J mouse model assessed as decrease in liver total cholesterol level at 10 to 30 mg/kg, IG preadministered with compound for 15 to 30 mins followed by PCN administration and measured after 7 days; format: functional, organism-based; conditions: dose 10-30 mg/kg, time 15-10110 min
[20] = test system: Mus musculus; assay: Lipid lowering activity in PCN-induced hyperlipidemic male C57BL/6J mouse model assessed as decrease in HMGCR mRNA expression level preadministered intragastrically with compound for 15 to 30 mins followed by PCN administration and measured after 7 days by RT-qPCR analysis; format: functional, organism-based; conditions: dose 10-30 mg/kg, route ig, time 15-10110 min

Na(+)/citrate cotransporter (Homo sapiens), sequence (Q86YT5 whole entry, looked up): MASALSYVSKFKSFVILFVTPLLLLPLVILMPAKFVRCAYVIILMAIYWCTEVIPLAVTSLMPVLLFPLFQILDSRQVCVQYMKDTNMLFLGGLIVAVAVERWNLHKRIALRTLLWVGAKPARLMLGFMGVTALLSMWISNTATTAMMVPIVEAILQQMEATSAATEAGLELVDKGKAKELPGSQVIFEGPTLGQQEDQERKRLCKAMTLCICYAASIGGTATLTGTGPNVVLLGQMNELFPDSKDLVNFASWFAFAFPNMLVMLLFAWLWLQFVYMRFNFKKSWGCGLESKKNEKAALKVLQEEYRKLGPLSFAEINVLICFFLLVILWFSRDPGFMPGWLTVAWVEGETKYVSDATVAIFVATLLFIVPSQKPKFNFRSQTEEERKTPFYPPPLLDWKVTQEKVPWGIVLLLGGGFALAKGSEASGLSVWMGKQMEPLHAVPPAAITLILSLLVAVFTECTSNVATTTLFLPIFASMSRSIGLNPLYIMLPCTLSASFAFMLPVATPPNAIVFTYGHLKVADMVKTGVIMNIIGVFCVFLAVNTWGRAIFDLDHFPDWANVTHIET

Question: For `O=C(O)CC(O)(CCc1ccc(-c2ccccc2)cc1)C(=O)O` (stereo not given), which inhibition [1] is on record?
Answer: Active

Question: What about the inhibition [2] of the same molecule?
Answer: inactive

Question: And the inhibition [3]?
Answer: inactive

Question: What about the Activity [4] of the same molecule?
Answer: Dose-Dependent Effect

Question: And the Activity [5]?
Answer: inactive

Question: And the Activity [6]?
Answer: Active

Question: What about the Activity [7] of the same molecule?
Answer: inactive

Question: And the Activity [8]?
Answer: Dose-Dependent Effect

Question: What about the Activity [9] of the same molecule?
Answer: Dose-Dependent Effect

Question: And the Activity [10]?
Answer: Active

Question: What about the Activity [11] of the same molecule?
Answer: Dose-Dependent Effect

Question: And the Activity [12]?
Answer: Active

Question: What about the Activity [13] of the same molecule?
Answer: Active

Question: What about the Activity [14] of the same molecule?
Answer: Active

Question: And the Activity [15]?
Answer: Active

Question: And the inhibition [16]?
Answer: Active

Question: And the Activity [17]?
Answer: Dose-Dependent Effect

Question: And the Activity [18]?
Answer: Active

Question: And the Activity [19]?
Answer: Active

Question: And the Activity [20]?
Answer: Dose-Dependent Effect
